# Laboratory results: ChEMBL document CHEMBL5579887, “Structure-Activity Relationship Studies of Substituted 2-Phenyl-1,2,4-triazine-3,5(2H,4H)-dione Analogues: Development of Potent eEF2K Degraders against Triple-Negative Breast Cancer” (J Med Chem, 2024)
# What was measured:
# [1] = test system: MDA-MB-231; experiment: cells; settings: Homo sapiens, MDA-MB-231, 72 h, read-out: INH
# Description: Antitumor activity against human MDA-MB-231 cells assessed as inhibition of cell viability by measuring inhibition rate at 20 uM measured after 72 hrs by CCK-8 assay relative to control
# [2] = Kinetic solubility of the compound in PBS buffer at pH 7.4 measured by HPLC analysis
# [3] = test system: MDA-MB-231; experiment: cells; settings: Homo sapiens, MDA-MB-231, 72 h, read-out: INH; remark: listed apart in the source
# Description: Antitumor activity against human MDA-MB-231 cells assessed as inhibition of cell viability by measuring inhibition rate at 1 uM measured after 72 hrs by CCK-8 assay relative to control
# [4] = test system: MDA-MB-231; experiment: cells; settings: Homo sapiens, MDA-MB-231, 72 h
# Description: Antitumor activity against human MDA-MB-231 cells assessed as inhibition of cell viability by measuring inhibition rate measured after 72 hrs by CCK-8 assay relative to control
# [5] = target: T1, Eukaryotic elongation factor 2 kinase (Homo sapiens, UniProt O00418); experiment: Binding affinity to eEF2K (unknown origin) assessed as dissociation constant measured by SPR analysis
# T1 sequence (O00418 whole entry): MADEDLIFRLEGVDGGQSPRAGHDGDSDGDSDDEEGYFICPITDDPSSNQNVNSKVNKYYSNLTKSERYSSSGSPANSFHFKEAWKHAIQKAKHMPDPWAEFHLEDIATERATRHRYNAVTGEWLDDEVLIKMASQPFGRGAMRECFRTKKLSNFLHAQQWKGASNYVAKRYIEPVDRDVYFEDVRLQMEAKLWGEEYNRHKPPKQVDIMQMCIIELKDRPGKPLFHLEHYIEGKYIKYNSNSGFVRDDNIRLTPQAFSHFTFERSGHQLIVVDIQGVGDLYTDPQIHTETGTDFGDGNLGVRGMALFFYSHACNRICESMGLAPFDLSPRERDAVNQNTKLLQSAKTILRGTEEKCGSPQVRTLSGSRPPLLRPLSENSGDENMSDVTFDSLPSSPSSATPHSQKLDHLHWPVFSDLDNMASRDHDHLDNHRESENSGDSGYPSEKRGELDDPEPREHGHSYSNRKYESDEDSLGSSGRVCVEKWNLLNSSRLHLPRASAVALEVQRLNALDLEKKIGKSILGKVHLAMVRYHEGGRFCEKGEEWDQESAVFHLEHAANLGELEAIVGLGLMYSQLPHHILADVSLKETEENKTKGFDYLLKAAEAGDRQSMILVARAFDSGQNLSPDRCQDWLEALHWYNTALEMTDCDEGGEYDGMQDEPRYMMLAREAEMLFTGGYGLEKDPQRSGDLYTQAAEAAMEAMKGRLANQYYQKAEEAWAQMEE
# [6] = In vivo antitumor activity against human MDA-MB-231 cells xenografted in female nude mouse assessed as tumor growth inhibition at 10 mg/kg, ip administered every other day relative to control; settings: MDA-MB-231, read-out: TGI
# [7] = test system: MDA-MB-231; experiment: cells; settings: Homo sapiens, MDA-MB-231, 72 h, read-out: INH; remark: listed apart in the source
# Description: Antitumor activity against human MDA-MB-231 cells assessed as inhibition of cell viability at 100 nM measured after 72 hrs by CCK-8 assay
SMILES,solubility kinetic [2] [µM],IC50 [4] [nM],Kd [5] [nM],inhibition at 20 µM [1] [%],inhibition at 1 µM [3] [%],inhibition in vivo at 10 mg/kg [6] [%],inhibition at 0.1 µM [7] [%]
CCn1c(=O)c2cc(C(N)=O)c(N)nc2n(C2CC2)c1=O,,,,4.67,,,
Cc1ccc(-n2nc(C#N)c(=O)n(Cc3ccncc3)c2=O)cc1C,,,,0.27,,,
Cc1ccc(-n2nc(C#N)c(=O)n(Cc3ccccc3F)c2=O)cc1C,,,,93.5,-3.59,,
O=C(/C=C/c1cccc(C(F)(F)F)c1)c1cc2ccccc2oc1=O,,~1000,,,,,
Cc1ccc(-n2nc(C(=O)NCCN3CCOCC3)c(=O)n(Cc3ccccc3)c2=O)cc1C,,,,60.9,,,
Cc1ccc(-n2nc(C#N)c(=O)n(Cc3ccccc3)c2=O)cc1C,,,,96.4,58.1,,
Cc1ccc(-n2nc(C(=O)N3CCC(F)(F)CC3)c(=O)n(Cc3cccc(F)c3)c2=O)cc1C,,,,84.3,58.6,,
Cc1ccc(-n2nc(C(=O)N3CCCNCC3)c(=O)n(Cc3ccccc3)c2=O)cc1C,,,,53.6,,,
Cc1ccc(-n2nc(C#N)c(=O)n(Cc3ccccn3)c2=O)cc1C,,,,-4.94,,,
Cc1ccc(-n2nc(C(=O)N3CCN(C(=O)OC(C)(C)C)CC3)c(=O)n(Cc3cccc(F)c3)c2=O)cc1C,,,,95,,,
Cc1ccc(-n2nc(C(=O)N3CCC3)c(=O)n(Cc3ccccc3)c2=O)cc1C,,,,98.7,17.7,,
Cc1ccc(-n2nc(C#N)c(=O)n(Cc3ccc(F)cc3)c2=O)cc1C,,,,93.6,-1.93,,
Cc1ccc(-n2nc(C(=O)NC3CCN(Cc4ccccc4)CC3)c(=O)n(Cc3ccccc3)c2=O)cc1C,,,,74.9,,,
Cc1ccc(-n2nc(C(=O)N3CCN(c4ccccc4)CC3)c(=O)n(Cc3ccccc3)c2=O)cc1C,,,,79,,,
Cc1ccc(-n2nc(C(=O)N3CCN(C(=O)C4CC4)CC3)c(=O)n(Cc3cccc(F)c3)c2=O)cc1C,,,,22.2,,,
Cc1ccc(-n2nc(C(=O)N3CC(N(C)C(=O)OC(C)(C)C)C3)c(=O)n(Cc3cccc(F)c3)c2=O)cc1C,,,,98.5,,,
Cc1ccc(-n2nc(C(=O)N3CCC[C@H](NC(=O)OC(C)(C)C)C3)c(=O)n(Cc3cccc(F)c3)c2=O)cc1C,,,,98,8.56,,
CCOC(=O)N1CCN(C(=O)c2nn(-c3ccc(C)c(C)c3)c(=O)n(Cc3cccc(F)c3)c2=O)CC1,,,,95.5,,,
Cc1ccc(-n2nc(C(=O)N3CCN(C(=O)N(C)C)CC3)c(=O)n(Cc3cccc(F)c3)c2=O)cc1C,,,,12.8,,,
Cc1ccc(-n2nc(C(=O)N3CC(NC(=O)OC(C)(C)C)C3)c(=O)n(Cc3cccc(F)c3)c2=O)cc1C,,,,73,,,
Cc1ccc(-n2nc(C(=O)NCc3ccccn3)c(=O)n(Cc3ccccc3)c2=O)cc1C,,,,71.2,,,
CC(=O)O[C@H]1C(=O)[C@@]2(C)[C@H]([C@H](OC(=O)c3ccccc3)[C@]3(O)C[C@H](OC(=O)[C@H](O)[C@@H](NC(=O)c4ccccc4)c4ccccc4)C(C)=C1C3(C)C)[C@]1(OC(C)=O)CO[C@@H]1C[C@@H]2O [PACLITAXEL],,38.3,,,88.9,52.7,82.4

# The next lines start with results.
solubility kinetic [2] [µM],IC50 [4] [nM],Kd [5] [nM],SMILES,inhibition at 20 µM [1] [%],inhibition at 1 µM [3] [%],inhibition in vivo at 10 mg/kg [6] [%],inhibition at 0.1 µM [7] [%]
15,,,Cc1ccc(-n2nc(C(=O)Nc3ccc(CN4CCOCC4)cc3)c(=O)n(Cc3ccccc3)c2=O)cc1C,52.8,,,
103,,,COc1cccc(Cn2c(=O)c(C#N)nn(-c3ccc(C)c(C)c3)c2=O)c1,97.4,48.9,,
57,232,,Cc1ccc(-n2nc(C(=O)N3CCC[C@@H](CNC(=O)OC(C)(C)C)C3)c(=O)n(Cc3cccc(F)c3)c2=O)cc1C,99.3,92.1,,
67,,,Cc1ccc(-n2nc(C#N)c(=O)n(Cc3cccc(C(F)(F)F)c3)c2=O)cc1C,92.9,19.3,,
19,279,,Cc1ccc(-n2nc(C(=O)N3CCC(C(=O)OC(C)(C)C)CC3)c(=O)n(Cc3cccc(F)c3)c2=O)cc1C,90.4,90.7,,
106,,,Cc1ccc(-n2nc(C#N)c(=O)n(Cc3cccnc3)c2=O)cc1C,34.8,,,
44,102,436,Cc1ccc(-n2nc(C(=O)N3CCCC(CNC(=O)OC(C)(C)C)C3)c(=O)n(Cc3cccc(F)c3)c2=O)cc1C (stereo not drawn),96,91.2,,
24,261,,Cc1ccc(-n2nc(C(=O)N3CCC[C@H](CNC(=O)OC(C)(C)C)C3)c(=O)n(Cc3cccc(F)c3)c2=O)cc1C,99.9,92.2,,
,> 1000,,Cc1ccc(-n2nc(C(=O)N3CCNCC3)c(=O)n(Cc3ccccc3)c2=O)cc1C,96.7,,,
20,94.1,,Cc1ccc(-n2nc(C(=O)N3CCCCC3)c(=O)n(Cc3ccccc3F)c2=O)cc1C,99.2,93.5,,
129,478,,Cc1ccc(-n2nc(C(=O)N3CCC[C@@H](NC(=O)OC(C)(C)C)C3)c(=O)n(Cc3cccc(F)c3)c2=O)cc1C,98.3,74.1,,
96,771,,Cc1ccc(-n2nc(C(=O)N3CCCCC3)c(=O)n(Cc3ccc(F)cc3)c2=O)cc1C,94.1,63.8,,
44,659,,Cc1ccc(-n2nc(C(=O)N3CCOCC3)c(=O)n(Cc3ccccc3)c2=O)cc1C,95.8,70.1,,
54,,,Cc1ccc(-n2nc(C(=O)N3CCCN(C(=O)OC(C)(C)C)C3)c(=O)n(Cc3cccc(F)c3)c2=O)cc1C,96,39.9,,
71,,,CC#CCn1c(=O)c(C#N)nn(-c2ccc(C)c(C)c2)c1=O,85.5,,,
30,288,,Cc1ccc(-n2nc(C(=O)N3CCCC3)c(=O)n(Cc3ccccc3)c2=O)cc1C,95.4,83.4,,
17,168,,Cc1ccc(-n2nc(C(=O)N3CCCCC3)c(=O)n(Cc3cccc(F)c3)c2=O)cc1C,99.6,93.3,,
15,,,Cc1ccc(-n2nc(C#N)c(=O)n(Cc3cccc(F)c3)c2=O)cc1C,91.1,23.2,,
36,484,,Cc1ccc(-n2nc(C(=O)N3CCC(F)(F)CC3)c(=O)n(Cc3ccccc3)c2=O)cc1C,96.8,61.5,,
25,,,COc1ccccc1CNC(=O)c1nn(-c2ccc(C)c(C)c2)c(=O)n(Cc2ccccc2)c1=O,17.5,,,
62,45.9,,Cc1ccc(-n2nc(C(=O)N3CCCCCC3)c(=O)n(Cc3ccccc3)c2=O)cc1C,99.7,96,,
,> 1000,,CCN1CCN(C(=O)c2nn(-c3ccc(C)c(C)c3)c(=O)n(Cc3ccccc3)c2=O)CC1,93.3,,,
90,131,,CCOC(=O)C1CCCN(C(=O)c2nn(-c3ccc(C)c(C)c3)c(=O)n(Cc3cccc(F)c3)c2=O)C1 (stereo not drawn),98.4,87.6,,
56,867,,Cc1ccc(-n2nc(C(=O)N(C)C)c(=O)n(Cc3ccccc3)c2=O)cc1C,89.8,64,,
99,,,Cc1ccc(-n2nc(C(=O)N3C4CCC3CN(C(=O)OC(C)(C)C)C4)c(=O)n(Cc3cccc(F)c3)c2=O)cc1C,14.5,,,
41,611,,Cc1ccc(-n2nc(C(=O)N3CCCN(C(=O)OC(C)(C)C)CC3)c(=O)n(Cc3cccc(F)c3)c2=O)cc1C,98.3,71.1,,
57,132,,Cc1ccc(-n2nc(C(=O)N3CCC(F)CC3)c(=O)n(Cc3ccccc3)c2=O)cc1C,99.3,89.5,,
,> 1000,,Cc1ccc(-n2nc(C(=O)N3CCCN(C)CC3)c(=O)n(Cc3ccccc3)c2=O)cc1C,97.2,,,
47,,,Cc1ccc(-n2nc(C(=O)N3CC3)c(=O)n(Cc3ccccc3)c2=O)cc1C,72.7,,,
,> 1000,,Cc1ccc(-n2nc(C(=O)NCCN(C)C)c(=O)n(Cc3ccccc3)c2=O)cc1C,97.7,,,
